The values below come from paper PMC2248166, “Quantitative peptide binding motifs for 19 human and mouse MHC class I molecules derived using positional scanning combinatorial peptide libraries” (Immunome Research, 2008).

Among the targets are HLA A*3201 (Homo sapiens, UniProt P04439, A270S/D101S/D185E/E176V/E277Q/F133L/G103R/G107R/G231S/H175R/I121M/I218V/I322F/K168Q/L105A/L300P/L318F/M331R/P208A/P217A/Q94H/R106L/R138Q/S129P/T104I/T323A/T345S/V100E/V321M/V358M); HLA B*0801 (Homo sapiens, UniProt P01889, A93T/A95T/D138N/E176V/E187T/K202T/Q94N/R180D/S35A/V36M/Y33D/Y91F); HLA B*1501 (Homo sapiens, UniProt P01889, A329T/A93T/A95T/C349S/D201E/D98Y/E187L/E204Q/E69M/E70A/K202T/N87E/Q94N/R155S/R180W/S121R/S35A/S48A/V306I/V36M/Y140S/Y91S); HLA B*1503 (Homo sapiens, UniProt P01889, A329T/A93T/A95T/C349S/D201E/D98Y/E187L/E204Q/K202T/N87E/Q94N/R155S/R180L/S121R/S35A/V306I/V36M/Y140S/Y91S); HLA A*3001 (Homo sapiens, UniProt P04439, D140H/D185E/E176W/F33S/G80R/H175R/K168Q/R138E/R41S).

Common to all, as to test: biochemical
What all share (assay type): binding

Where a SMILES comes first, the peptide text is derived from it.

Sequence of HLA A*3001 (P04439 25-365 limits assumed, stated change not applied): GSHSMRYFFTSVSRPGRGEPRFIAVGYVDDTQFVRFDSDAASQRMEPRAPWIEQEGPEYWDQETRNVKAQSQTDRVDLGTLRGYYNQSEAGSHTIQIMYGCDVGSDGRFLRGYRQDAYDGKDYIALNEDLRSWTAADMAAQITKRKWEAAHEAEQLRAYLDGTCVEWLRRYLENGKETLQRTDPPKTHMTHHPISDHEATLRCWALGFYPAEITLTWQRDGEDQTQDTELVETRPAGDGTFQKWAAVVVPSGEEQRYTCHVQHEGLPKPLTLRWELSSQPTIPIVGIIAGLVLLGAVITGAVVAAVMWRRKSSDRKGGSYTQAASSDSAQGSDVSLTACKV

One may read the IC50 as the concentration at which inhibition is half-maximal. A higher IC50 goes with weaker potency. For the compound `CSCC[C@H](NC(=O)[C@H](CC(C)C)NC(=O)[C@@H](N)CCSC)C(=O)N[C@@H](CC(N)=O)C(=O)N[C@@H](Cc1c[nH]cn1)C(=O)N[C@H](C(=O)N[C@@H](C)C(=O)N[C@@H](CC(N)=O)C(=O)N[C@@H](Cc1ccccc1)C(=O)O)C(C)C` [3102.0720] (H-MLMNHVANF-OH), the IC50 against HLA A*3201 is 8.3 nM; at HLA B*0801, 3.3 nM.
As for `CC(C)C[C@H](NC(=O)[C@H](CCC(=O)O)NC(=O)[C@H](CC(N)=O)NC(=O)[C@H](CCCNC(=N)N)NC(=O)[C@H](CC(=O)O)NC(=O)[C@H](CCCCN)NC(=O)[C@H](CC(C)C)NC(=O)[C@@H](N)CC(C)C)C(=O)N[C@@H](Cc1ccccc1)C(=O)O` [3102.0842] (H-LLKDRNELF-OH), the results for the IC50 on HLA B*1501, against HLA B*1503 and on HLA B*0801 were 1.8 nM, 16 nM and 41 nM, respectively.
For `CC(C)[C@H](NC(=O)[C@H](Cc1ccccc1)NC(=O)[C@H](CC(=O)O)NC(=O)[C@H](CC(N)=O)NC(=O)[C@H](CCCCN)NC(=O)[C@@H]1CCCN1C(=O)[C@@H](N)Cc1ccccc1)C(=O)N[C@@H](CO)C(=O)N[C@@H](Cc1ccccc1)C(=O)O` [3102.0637] (H-FPKNDFVSF-OH) the same measures were 10 nM, 4.2 nM and 16 nM.
In the case of `CC[C@H](C)[C@H](NC(=O)[C@@H](NC(=O)[C@H](CC(N)=O)NC(=O)[C@H](CCSC)NC(=O)[C@@H](N)CO)[C@@H](C)O)C(=O)N[C@@H](CCCCN)C(=O)N[C@@H](CCC(N)=O)C(=O)N[C@@H](CO)C(=O)N[C@@H](Cc1ccccc1)C(=O)O` [3102.1144] (H-SMNTIKQSF-OH), the IC50 against HLA B*1503 is 17 nM; at HLA A*3201 it was 293 nM; against HLA B*0801, 450 nM.
With `CC[C@H](C)[C@H](NC(=O)[C@@H](N)Cc1ccccc1)C(=O)N[C@@H](CCCNC(=N)N)C(=O)N[C@@H](Cc1ccc(O)cc1)C(=O)N[C@@H](CCCNC(=N)N)C(=O)N[C@@H](CCSC)C(=O)N[C@@H](Cc1c[nH]cn1)C(=O)N1CCC[C@H]1C(=O)N[C@@H](CCSC)C(=O)O` [3102.0768] (H-FIRYRMHPM-OH), the IC50 was determined as 1.2 nM against HLA B*1501, 22 nM against HLA B*1503 and 0.21 nM at HLA B*0801.
As to `CC[C@H](C)[C@H](NC(=O)[C@H](CCCNC(=N)N)NC(=O)[C@H](Cc1c[nH]cn1)NC(=O)[C@H](CS)NC(=O)[C@@H](NC(=O)[C@@H](N)CCSC)C(C)C)C(=O)N[C@@H](CC(C)C)C(=O)N[C@H](C(=O)N[C@@H](Cc1ccc(O)cc1)C(=O)O)[C@@H](C)O` [3102.0849] (H-MVCHRILTY-OH), the IC50 at HLA B*1501 stood at 70 nM; against HLA B*1503 it was 28 nM; on HLA B*0801, 220 nM.
For `CC[C@H](C)[C@H](NC(=O)[C@H](Cc1ccccc1)NC(=O)[C@H](CCCNC(=N)N)NC(=O)[C@H](CCC(=O)O)NC(=O)[C@@H](NC(=O)[C@H](CCSC)NC(=O)[C@@H](N)Cc1ccc(O)cc1)[C@@H](C)CC)C(=O)N[C@@H](CO)C(=O)N[C@@H](Cc1ccccc1)C(=O)O` [3102.1085] (H-YMIERFISF-OH), the IC50 was determined as 0.11 nM against HLA B*1501, 0.046 nM on HLA B*1503 and 0.35 nM on HLA B*0801.
Consider `CC[C@H](C)[C@H](NC(=O)[C@@H](NC(=O)[C@H](Cc1c[nH]cn1)NC(=O)[C@H](CCCNC(=N)N)NC(=O)[C@H](CC(C)C)NC(=O)[C@@H](NC(=O)[C@H](Cc1ccccc1)NC(=O)[C@H](CCSC)NC(=O)[C@@H](N)CO)[C@@H](C)O)[C@@H](C)CC)C(=O)O` [3102.0752] (H-SMFTLRHII-OH), for which the IC50 against HLA A*3201 stood at 83 nM; at HLA B*0801, 1.8 nM.
As for `CC[C@H](C)[C@H](NC(=O)[C@H](CCCNC(=N)N)NC(=O)[C@H](Cc1ccc(O)cc1)NC(=O)[C@H](CCSC)NC(=O)[C@H](CO)NC(=O)[C@@H](N)CCCNC(=N)N)C(=O)N1CCC[C@H]1C(=O)N1CCC[C@H]1C(=O)N[C@@H](Cc1ccccc1)C(=O)O` [3102.0766] (H-RSMYRIPPF-OH), the IC50 against HLA A*3201 came to 0.73 nM; at HLA B*0801, 158 nM.
In the case of `CC[C@H](C)[C@H](NC(=O)[C@H](CC(C)C)NC(=O)[C@@H](N)CC(N)=O)C(=O)N[C@H](C(=O)N[C@@H](CC(C)C)C(=O)N[C@@H](C)C(=O)N[C@H](C(=O)N[C@@H](CO)C(=O)N[C@@H](Cc1ccccc1)C(=O)O)C(C)C)[C@@H](C)O` [3102.0798] (H-NLITLAVSF-OH), the values for the IC50 against HLA B*1501, against HLA B*1503 and at HLA B*0801 were 81 nM, 15 nM and 328 nM, respectively.
As for `CC[C@H](C)[C@H](NC(=O)[C@@H](N)CCCNC(=N)N)C(=O)N[C@@H](CCCNC(=N)N)C(=O)N[C@@H](CCCNC(=N)N)C(=O)N[C@@H](Cc1ccccc1)C(=O)N[C@@H](CCCNC(=N)N)C(=O)N[C@@H](CCCNC(=N)N)C(=O)N1CCC[C@H]1C(=O)N[C@@H](CCSC)C(=O)O` [3102.0681] (H-RIRRFRRPM-OH), the IC50 was determined as 36 nM against HLA B*1501, 30 nM against HLA B*1503, 4.4 nM against HLA A*3001 and 8.9 nM against HLA B*0801.
For `CSCC[C@H](NC(=O)[C@@H](N)CO)C(=O)N[C@@H](CCCCN)C(=O)N[C@H](C(=O)N[C@H](C(=O)N[C@@H](Cc1ccccc1)C(=O)N[C@@H](CCC(N)=O)C(=O)N[C@H](C(=O)N[C@@H](Cc1ccccc1)C(=O)O)C(C)C)C(C)C)[C@@H](C)O` [3102.1083] (H-SMKTVFQVF-OH), the IC50 against HLA B*1501 is 1.6 nM; at HLA B*1503, 3.8 nM; against HLA B*0801, 179 nM.
Turning to `CC[C@H](C)[C@H](NC(=O)[C@@H](NC(=O)[C@H](CO)NC(=O)[C@H](CO)NC(=O)[C@H](CO)NC(=O)[C@H](CCCCN)NC(=O)[C@H](C)NC(=O)[C@@H](NC(=O)[C@@H](N)CC(C)C)[C@@H](C)CC)C(C)C)C(=O)O` [3102.1021] (H-LIAKSSSVI-OH), the IC50 came out at 23 nM against HLA B*1501, 11 nM against HLA A*3001 and 13 nM at HLA B*0801.
As for `CSCC[C@H](NC(=O)[C@@H](NC(=O)[C@H](CO)NC(=O)CNC(=O)[C@H](CC(=O)O)NC(=O)[C@@H](NC(=O)[C@@H](NC(=O)[C@H](CCSC)NC(=O)[C@@H](N)Cc1ccc(O)cc1)C(C)C)C(C)C)C(C)C)C(=O)O` [3102.1153] (H-YMVVDGSVM-OH), the IC50 on HLA B*1501 was determined as 2.5 nM; at HLA B*1503 it was 1 nM; against HLA B*0801 it was 390 nM.
`CSCC[C@H](NC(=O)[C@@H](N)CO)C(=O)N[C@@H](Cc1c[nH]cn1)C(=O)N[C@@H](Cc1ccccc1)C(=O)N[C@@H](Cc1ccc(O)cc1)C(=O)NCC(=O)N[C@@H](Cc1c[nH]c2ccccc12)C(=O)N[C@@H](CO)C(=O)N[C@@H](CC(C)C)C(=O)O` [3102.0946] (H-SMHFYGWSL-OH): the results for the IC50 against HLA B*1501 and on HLA B*0801 were 63 nM and 2.9 nM, respectively.
For the compound `CSCC[C@H](NC(=O)[C@@H](N)CC(C)C)C(=O)N[C@@H](Cc1ccccc1)C(=O)N[C@@H](CCCCN)C(=O)N[C@@H](Cc1c[nH]cn1)C(=O)N[C@@H](CC(C)C)C(=O)N[C@@H](CC(C)C)C(=O)N[C@@H](Cc1c[nH]cn1)C(=O)N1CCC[C@H]1C(=O)O` [3102.0908] (H-LMFKHLLHP-OH), the IC50 was 103 nM on HLA B*1501, 26 nM on HLA B*1503 and 1 nM against HLA B*0801.
Take `CC[C@H](C)[C@H](NC(=O)[C@H](Cc1c[nH]cn1)NC(=O)[C@H](CS)NC(=O)[C@H](CC(C)C)NC(=O)[C@H](CC(C)C)NC(=O)[C@@H](N)CC(N)=O)C(=O)N[C@@H](Cc1ccc(O)cc1)C(=O)N[C@@H](CO)C(=O)N[C@@H](CC(C)C)C(=O)O` [3102.0692] (H-NLLCHIYSL-OH): the IC50 against HLA A*3201 stood at 232 nM; against HLA B*0801, 0.31 nM.
